Measurements reported in PubChem BioAssay AID330 (DTP/NCI, 2004).
Where “and” joins values, the source holds several entries; their conditions need not be identical. Identical values can stand only once. Toxic doses and inconclusive results are not listed. The calls were made as follows: active = survival T/C of 150% or more; inactive = T/C below 125% in these data.

Tested on: P388 leukemia ip, CD2F1 mice, survival T/C
Assay: NCI In Vivo Anticancer Drug Screen. Data for tumor model P388 Leukemia (intraperitoneal) in CD2F1 (CDF1) mice
Conditions: endpoint: median survival time, higher = longer survival
In short: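 Mice carrying the transplanted tumor received test compound or vehicle. Survival was recorded in each group, and the value is the treated-group measurement divided by that of the vehicle-treated control group.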

[1] = dose: 12.5 mg/kg/injection, schedule: Q01DX005 (ip), vehicle: saline with Tween-80
[2] = dose: 25.0 mg/kg/injection, schedule: Q01DX005 (ip), vehicle: saline with Tween-80
[3] = dose: 50.0 mg/kg/injection, schedule: Q01DX005 (ip), vehicle: saline with Tween-80
[4] = dose: 60.0 mg/kg/injection, schedule: Q01DX005 (ip), vehicle: saline with Tween-80
[5] = dose: 120.0 mg/kg/injection, schedule: Q01DX005 (ip), vehicle: saline with Tween-80
[6] = dose: 240.0 mg/kg/injection, schedule: Q01DX005 (ip), vehicle: saline with Tween-80
[7] = dose: 50.0 mg/kg/injection, schedule: Q01DX009 (ip), vehicle: saline with Tween-80
[8] = dose: 100.0 mg/kg/injection, schedule: Q01DX009 (ip), vehicle: saline with Tween-80
[9] = dose: 25.0 mg/kg/injection, schedule: Q01DX009 (ip), vehicle: saline with Tween-80
[10] = dose: 50.0 mg/kg/injection, schedule: Q01DX009 (ip), vehicle: saline
[11] = dose: 100.0 mg/kg/injection, schedule: Q01DX009 (ip), vehicle: saline
[12] = dose: 200.0 mg/kg/injection, schedule: Q01DX009 (ip), vehicle: saline with Tween-80
[13] = dose: 200.0 mg/kg/injection, schedule: Q01DX009 (ip), vehicle: saline
[14] = dose: 100.0 mg/kg/injection, schedule: Q01DX001 (ip), vehicle: saline with Tween-80
[15] = dose: 200.0 mg/kg/injection, schedule: Q01DX001 (ip), vehicle: saline with Tween-80
[16] = dose: 400.0 mg/kg/injection, schedule: Q01DX001 (ip), vehicle: saline with Tween-80
[17] = dose: 100.0 mg/kg/injection, schedule: Q04DX002 (ip), vehicle: saline with Tween-80
[18] = dose: 100.0 mg/kg/injection, schedule: Q01DX005 (ip), vehicle: saline with Tween-80
[19] = dose: 200.0 mg/kg/injection, schedule: Q01DX005 (ip), vehicle: saline with Tween-80

Measured: T/C

Cc1cc2c(C(C)C)c(O)c(O)c(C=NC3CCCCC3)c2c(O)c1-c1c(C)cc2c(C(C)C)c(O)c(O)c(C=NC3CCCCC3)c2c1O
inactive: [1] 103 % of control | [2] 92 % of control | [3] 88 % of control

Cc1cc(C)nc(CC(O)c2ccc(C=O)cc2)c1 (stereo unspecified)
inactive: [4] 100 % of control | [5] 94 % of control | [6] 94 % of control

c1cnc2c(c1)C1OC(S2)c2cccnc2S1
inactive: [7] 102 % of control | [8] 97 % of control

CC(NC(=O)CCl)C(=O)O (stereo unspecified)
inactive: [9] 105 % of control and 109 % of control | [7] 101 % of control and 103 % of control | [10] 101 % of control | [8] 105 % of control and 95 % of control | [11] 105 % of control | [12] 103 % of control | [13] 101 % of control

CCOC(=O)CNCCN(CC)CC
inactive: [14] 109 % of control | [15] 95 % of control | [16] 100 % of control

Cc1nn(C(=O)c2ccncc2)c(C)c1N=Nc1nc2ccc([N+](=O)[O-])cc2s1
inactive: [17] 97 % of control | dose: 200.0 mg/kg/injection, schedule: Q04DX002 (ip), vehicle: saline with Tween-80 94 % of control

c1cc(-c2cc(-c3cc(-c4ccncc4)n[nH]3)[nH]n2)ccn1
inactive: dose: 60.0 mg/kg/injection, schedule: Q01DX005 (ip), vehicle: Klucel + Tween-80 91 % of control | dose: 120.0 mg/kg/injection, schedule: Q01DX005 (ip), vehicle: Klucel + Tween-80 100 % of control | dose: 240.0 mg/kg/injection, schedule: Q01DX005 (ip), vehicle: Klucel + Tween-80 91 % of control

CN(C)C(=O)Nc1nc2cc(Cl)c(Cl)cc2[nH]1
inactive: dose: 200.0 mg/kg/injection, schedule: Q04DX003 (oral), vehicle: saline with Tween-80 102 % of control | dose: 400.0 mg/kg/injection, schedule: Q04DX003 (oral), vehicle: saline with Tween-80 117 % of control | dose: 800.0 mg/kg/injection, schedule: Q04DX003 (oral), vehicle: saline with Tween-80 112 % of control | dose: 1600.0 mg/kg/injection, schedule: Q04DX003 (oral), vehicle: saline with Tween-80 121 % of control

CCCCOCN(COCCCC)c1ccccc1
inactive: [14] 104 % of control | [15] 113 % of control | [16] 109 % of control

OCC1OC(n2cnc3c(NCc4ccco4)ncnc32)C(O)C1O (stereo unspecified)
inactive: [7] 111 % of control | [8] 93 % of control | [12] 118 % of control

CC(=O)OC/C(C)=N\NS(=O)(=O)c1cc(Cl)c(Cl)cc1Cl
inactive: [10] 99 % of control | [11] 86 % of control

Cc1cc(N(C)C)cc(C)c1N=Nc1cc[n+]([O-])cc1
inactive: [9] 95 % of control | [7] 94 % of control | [8] 103 % of control | [12] 95 % of control

CN=C(N)N/N=C(\C)c1ccc2oc3ccc(/C(C)=N/NC(N)=NC)cc3c2c1
active: dose: 25.0 mg/kg/injection, schedule: Q04DX002 (ip), vehicle: saline with Tween-80 150 % of control | dose: 50.0 mg/kg/injection, schedule: Q04DX002 (ip), vehicle: saline with Tween-80 150 % of control | [17] 154 % of control

CCc1nc(N)nc(N)c1-c1ccc(Cl)c([N+](=O)[O-])c1
active: dose: 6.25 mg/kg/injection, schedule: Q01DX009 (ip), vehicle: distilled water + Tween-80 170 % of control | dose: 12.5 mg/kg/injection, schedule: Q01DX009 (ip), vehicle: distilled water + Tween-80 163 % of control
inactive: dose: 0.78 mg/kg/injection, schedule: Q01DX009 (ip), vehicle: distilled water + Tween-80 105 % of control | dose: 3.13 mg/kg/injection, schedule: Q01DX009 (ip), vehicle: distilled water + Tween-80 120 % of control and 123 % of control

CCS
inactive: [9] 86 % of control | [7] 91 % of control | [8] 92 % of control | [12] 88 % of control

CS(=O)(=O)CCS(C)(=O)=O
inactive: [7] 102 % of control | [12] 89 % of control

CC12CCC3(O)C(CCC4C(O)C(=O)CCC43C)C1CCC2=O (stereo unspecified)
inactive: dose: 11.25 mg/kg/injection, schedule: Q01DX005 (ip), vehicle: Klucel (hydroxypropylcellulose) (HPC) 105 % of control | dose: 22.5 mg/kg/injection, schedule: Q01DX005 (ip), vehicle: Klucel (hydroxypropylcellulose) (HPC) 100 % of control | dose: 45.0 mg/kg/injection, schedule: Q01DX005 (ip), vehicle: Klucel (hydroxypropylcellulose) (HPC) 105 % of control | dose: 90.0 mg/kg/injection, schedule: Q01DX005 (ip), vehicle: Klucel (hydroxypropylcellulose) (HPC) 114 % of control | dose: 180.0 mg/kg/injection, schedule: Q01DX005 (ip), vehicle: Klucel (hydroxypropylcellulose) (HPC) 98 % of control

O=C(CNC(=O)Nc1cccc(C(F)(F)F)c1)NNC(=O)Nc1ccc(Cl)c([N+](=O)[O-])c1
inactive: [4] 92 % of control | [5] 87 % of control | [6] 92 % of control

CCC1C2CCCCN3C(C4CC(C)C(=O)O4)CC(C4C(C)C(=O)OC14)C23 (stereo unspecified)
inactive: dose: 50.0 mg/kg/injection, schedule: Q01DX005 (ip), vehicle: Klucel (hydroxypropylcellulose) (HPC) 101 % of control | dose: 100.0 mg/kg/injection, schedule: Q01DX005 (ip), vehicle: Klucel (hydroxypropylcellulose) (HPC) 96 % of control | dose: 200.0 mg/kg/injection, schedule: Q01DX005 (ip), vehicle: Klucel (hydroxypropylcellulose) (HPC) 97 % of control | dose: 400.0 mg/kg/injection, schedule: Q01DX005 (ip), vehicle: Klucel (hydroxypropylcellulose) (HPC) 91 % of control

CCN(CC)C(=S)n1nc(C)c(N=Nc2cccc(Cl)c2Cl)c1C
inactive: dose: 6.25 mg/kg/injection, schedule: Q01DX005 (ip), vehicle: saline with Tween-80 103 % of control | [1] 97 % of control | [2] 93 % of control | [18] 91 % of control | [19] 94 % of control

Cc1ccc2ccc3ccc(CCl)nc3c2n1
inactive: dose: 3.12 micromoles/kg, schedule: Q01DX005 (ip), vehicle: other 95 % of control | dose: 6.25 micromoles/kg, schedule: Q01DX005 (ip), vehicle: other 99 % of control | dose: 12.5 micromoles/kg, schedule: Q01DX005 (ip), vehicle: other 102 % of control

Cc1[nH]c2ccc(N(C)C)cc2c(=O)c1CN1CCCCC1
inactive: dose: 50.0 mg/kg/injection, schedule: Q01DX009 (ip), vehicle: Klucel (hydroxypropylcellulose) (HPC) 106 % of control | dose: 100.0 mg/kg/injection, schedule: Q01DX009 (ip), vehicle: Klucel (hydroxypropylcellulose) (HPC) 100 % of control | dose: 200.0 mg/kg/injection, schedule: Q01DX009 (ip), vehicle: Klucel (hydroxypropylcellulose) (HPC) 108 % of control

COc1cc(C(=O)CC(=O)CCC(=O)Nc2ccc(Cl)cc2)ccc1O
inactive: [4] 104 % of control | [5] 103 % of control | [6] 98 % of control

CC(C)CC1[NH][Sn]2([NH]C(CC(C)C)C(=O)[O]2)[O]C1=O (stereo unspecified)
inactive: dose: 6.25 mg/kg/injection, schedule: Q01DX005 (ip), vehicle: Klucel (hydroxypropylcellulose) (HPC) 104 % of control | dose: 12.5 mg/kg/injection, schedule: Q01DX005 (ip), vehicle: Klucel (hydroxypropylcellulose) (HPC) 105 % of control | dose: 25.0 mg/kg/injection, schedule: Q01DX005 (ip), vehicle: Klucel (hydroxypropylcellulose) (HPC) 104 % of control

CCOc1cc2c(cc1C(C)c1cc(C(C)(C)C)c(O)c(C(C)(C)C)c1)OCO2 (stereo unspecified)
inactive: [3] 100 % of control | [18] 91 % of control | [19] 88 % of control

N#CC(=C1C=CC(=NO)C=C1)c1ccc(Cl)cc1
inactive: dose: 50.0 mg/kg/injection, schedule: Q04DX003 (ip), vehicle: saline with Tween-80 91 % of control | dose: 100.0 mg/kg/injection, schedule: Q04DX003 (ip), vehicle: saline with Tween-80 100 % of control and 92 % of control | dose: 200.0 mg/kg/injection, schedule: Q04DX003 (ip), vehicle: saline with Tween-80 98 % of control and 105 % of control | dose: 400.0 mg/kg/injection, schedule: Q04DX003 (ip), vehicle: saline with Tween-80 117 % of control

NC(Cc1ccc(O)cc1)C(=O)N/N=C/c1cccc2ccccc12 (stereo unspecified)
inactive: [3] 92 % of control | [18] 90 % of control | [19] 89 % of control

CN(CCN(C)C(=O)CCOS(C)(=O)=O)C(=O)CCOS(C)(=O)=O
116 % of control and 297 % of control: [13]
active: dose: 12.5 mg/kg/injection, schedule: Q01DX009 (ip), vehicle: saline 151 % of control | dose: 25.0 mg/kg/injection, schedule: Q01DX009 (ip), vehicle: saline 175 % of control | [10] 192 % of control and 210 % of control | [11] 260 % of control and 290 % of control
